The source made the active and inactive calls.
How the values were obtained:
[1] = biological target: Aryl hydrocarbon receptor (Homo sapiens, UniProt P35869); assay: Luminescence-based cell-based high throughput dose response assay for activators of the Aryl Hydrocarbon Receptor (AHR). [Related pubchem assays: 2796 (Primary screen (AHR activators in singlicate)), 2845 (Confirmation screen (AHR activators in triplicate)), 434939 (Counterscreen (PXR activators in triplicate)), 2804 (Summary (AHR activators))]; format: ADME
Sequence of Aryl hydrocarbon receptor (P35869 whole entry): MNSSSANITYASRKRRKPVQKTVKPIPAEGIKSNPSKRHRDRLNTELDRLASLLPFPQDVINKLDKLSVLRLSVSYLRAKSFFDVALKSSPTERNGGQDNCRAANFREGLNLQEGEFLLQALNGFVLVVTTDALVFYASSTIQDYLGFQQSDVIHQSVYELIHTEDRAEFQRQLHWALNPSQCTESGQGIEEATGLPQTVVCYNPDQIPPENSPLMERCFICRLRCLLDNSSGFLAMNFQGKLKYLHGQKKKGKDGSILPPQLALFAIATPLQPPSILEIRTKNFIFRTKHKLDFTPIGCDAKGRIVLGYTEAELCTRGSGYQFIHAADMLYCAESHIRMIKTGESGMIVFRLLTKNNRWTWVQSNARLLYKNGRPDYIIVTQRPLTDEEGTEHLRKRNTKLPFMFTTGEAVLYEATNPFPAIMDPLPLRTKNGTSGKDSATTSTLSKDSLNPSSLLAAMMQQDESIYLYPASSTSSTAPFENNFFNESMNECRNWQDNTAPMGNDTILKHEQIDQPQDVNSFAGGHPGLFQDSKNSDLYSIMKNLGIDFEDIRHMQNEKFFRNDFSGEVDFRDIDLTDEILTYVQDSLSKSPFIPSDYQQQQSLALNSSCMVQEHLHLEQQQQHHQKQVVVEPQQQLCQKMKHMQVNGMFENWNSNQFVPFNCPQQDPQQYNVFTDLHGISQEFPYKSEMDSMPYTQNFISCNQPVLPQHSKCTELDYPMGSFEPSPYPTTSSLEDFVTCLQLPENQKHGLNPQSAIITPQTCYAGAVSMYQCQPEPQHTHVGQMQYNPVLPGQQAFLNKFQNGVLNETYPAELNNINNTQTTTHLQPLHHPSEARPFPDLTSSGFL

Phospholipase A2 = Phospholipase A2 (Homo sapiens, UniProt P04054); format: functional;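 note: confirmatory dose-response counterscreen on phospholipase A2, testing hits that came from an ultra-high-throughput screen for ATG4B inhibitors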
Sequence of Phospholipase A2 (P04054 whole entry): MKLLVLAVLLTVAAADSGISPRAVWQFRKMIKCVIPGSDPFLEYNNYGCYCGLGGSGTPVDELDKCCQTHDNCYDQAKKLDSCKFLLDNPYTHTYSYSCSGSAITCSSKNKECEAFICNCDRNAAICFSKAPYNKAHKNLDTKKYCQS

[2] = biological target: Bifunctional protein GlmU (Mycobacterium tuberculosis, UniProt P9WMN3); assay: Inhibitors of Mycobacterial Glucosamine-1-phosphate acetyl transferase (GlmU). Secondary screen.; set-up: species or system Mycobacterium tuberculosis H37Rv
Cysteine protease ATG4B = biological target: T1, Cysteine protease ATG4B (Homo sapiens, UniProt Q9Y4P1); format: functional;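 note: Fluorescence-based dose-response confirmation assay measuring inhibition of ATG4B activity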
T1 sequence (Q9Y4P1 whole entry): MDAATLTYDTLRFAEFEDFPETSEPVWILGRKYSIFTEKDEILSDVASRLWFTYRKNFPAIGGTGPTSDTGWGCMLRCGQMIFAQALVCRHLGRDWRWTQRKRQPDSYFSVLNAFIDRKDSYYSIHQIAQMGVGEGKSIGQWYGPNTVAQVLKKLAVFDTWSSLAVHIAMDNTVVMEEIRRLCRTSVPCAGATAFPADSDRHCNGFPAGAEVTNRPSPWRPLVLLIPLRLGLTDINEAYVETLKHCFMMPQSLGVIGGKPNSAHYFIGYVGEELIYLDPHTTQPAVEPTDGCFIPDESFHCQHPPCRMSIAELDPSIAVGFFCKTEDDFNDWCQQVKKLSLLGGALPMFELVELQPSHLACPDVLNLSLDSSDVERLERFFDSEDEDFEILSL

[3] = M. tuberculosis growth inhibition, HTS (AID 449762); format: functional
[4] = biological target: T2, Mannose-6-phosphate isomerase (Homo sapiens, UniProt P34949); assay: human PMI inhibitors, high substrate, primary screen, biochemical, fluorescence intensity, high mannose 6-phosphate (AID 1220)
T2 sequence (P34949 whole entry): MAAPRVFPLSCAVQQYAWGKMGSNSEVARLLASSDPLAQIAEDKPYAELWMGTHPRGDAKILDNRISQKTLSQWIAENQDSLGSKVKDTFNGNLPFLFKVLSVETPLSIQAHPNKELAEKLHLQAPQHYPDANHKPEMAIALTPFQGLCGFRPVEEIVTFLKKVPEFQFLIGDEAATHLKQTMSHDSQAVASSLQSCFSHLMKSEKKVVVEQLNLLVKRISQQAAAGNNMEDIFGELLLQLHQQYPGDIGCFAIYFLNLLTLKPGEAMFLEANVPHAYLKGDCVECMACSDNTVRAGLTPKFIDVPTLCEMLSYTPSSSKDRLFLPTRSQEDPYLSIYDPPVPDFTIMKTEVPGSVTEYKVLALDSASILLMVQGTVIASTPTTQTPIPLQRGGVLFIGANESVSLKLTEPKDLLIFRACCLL

[5] = biological target: Ubiquitin carboxyl-terminal hydrolase BAP1 (Homo sapiens, UniProt Q92560); assay: BAP1 deubiquitinase inhibitors, dose response, biochemical (AID 714); format: functional
[6] = biological target: T3, Sphingosine 1-phosphate receptor 2 (Homo sapiens, UniProt O95136); assay: Dose Response Cell Based Assay for Antagonists of the S1P2 Receptor. [Related pubchem assays: 856, 736 ]; format: functional
T3 sequence (O95136 whole entry): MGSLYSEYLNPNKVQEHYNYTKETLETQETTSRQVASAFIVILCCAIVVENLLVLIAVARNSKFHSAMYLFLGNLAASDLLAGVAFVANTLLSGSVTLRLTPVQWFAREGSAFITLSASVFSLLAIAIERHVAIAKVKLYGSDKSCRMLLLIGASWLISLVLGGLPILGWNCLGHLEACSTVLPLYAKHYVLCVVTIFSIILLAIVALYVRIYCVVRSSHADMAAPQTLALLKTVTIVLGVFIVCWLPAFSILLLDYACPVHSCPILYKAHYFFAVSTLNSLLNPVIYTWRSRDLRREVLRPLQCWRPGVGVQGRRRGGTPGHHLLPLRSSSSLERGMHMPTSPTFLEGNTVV

Genome polyprotein = Genome polyprotein (dengue virus type 2, UniProt P29990); assay: Dengue-2 NS5 methyltransferase inhibitors, primary screen, biochemical, confirmation dose response (AID 588689); format: functional
Vero = Vero cell cytotoxicity, cytotoxicity control for flavivirus capping enzyme inhibitors (AID 588742); format: functional; conditions: Chlorocebus sabaeus
[7] = cytotoxicity in KRAS-transformed pancreatic duct cells, primary screen, cell-based, fluorescence, HTS (AID 431); format: functional; conditions: Homo sapiens;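 note: cell line used: HPDE-C7K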
[8] = biological target: Mitogen-activated protein kinase 10 (Homo sapiens, UniProt P53779); assay: Dose response biochemical screening assay for inhibitors of c-Jun N-Terminal Kinase 3 (JNK3). [Related pubchem assays: 746 ]
Sequence of Mitogen-activated protein kinase 10 (P53779 whole entry): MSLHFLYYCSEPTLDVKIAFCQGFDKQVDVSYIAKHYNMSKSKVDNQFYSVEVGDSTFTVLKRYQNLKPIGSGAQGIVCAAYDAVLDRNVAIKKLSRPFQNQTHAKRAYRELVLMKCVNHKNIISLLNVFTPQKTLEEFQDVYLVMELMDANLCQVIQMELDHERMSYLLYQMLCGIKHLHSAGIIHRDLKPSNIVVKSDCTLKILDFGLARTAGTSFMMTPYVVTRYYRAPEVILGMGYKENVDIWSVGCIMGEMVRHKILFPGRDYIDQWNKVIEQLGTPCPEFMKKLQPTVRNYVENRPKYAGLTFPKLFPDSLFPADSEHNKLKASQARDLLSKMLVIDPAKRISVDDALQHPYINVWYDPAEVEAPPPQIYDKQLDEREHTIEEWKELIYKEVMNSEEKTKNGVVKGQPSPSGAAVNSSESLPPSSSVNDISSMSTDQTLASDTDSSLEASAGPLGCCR

[9] = inhibitors of PGC1a acetylation in cells, dose response, cell-based, cherry-picked samples (AID 720514); format: functional;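 note: potency may reflect raised or lowered acetylation signal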
[10] = biological target: Glucose-6-phosphate 1-dehydrogenase (Homo sapiens, UniProt P11413); assay: human G6PD enzyme inhibitors, dose response, selectivity assay for P. falciparum G6PD inhibitor project, biochemical, fluorescence (AID 504792); format: functional
Sequence of Glucose-6-phosphate 1-dehydrogenase (P11413 whole entry): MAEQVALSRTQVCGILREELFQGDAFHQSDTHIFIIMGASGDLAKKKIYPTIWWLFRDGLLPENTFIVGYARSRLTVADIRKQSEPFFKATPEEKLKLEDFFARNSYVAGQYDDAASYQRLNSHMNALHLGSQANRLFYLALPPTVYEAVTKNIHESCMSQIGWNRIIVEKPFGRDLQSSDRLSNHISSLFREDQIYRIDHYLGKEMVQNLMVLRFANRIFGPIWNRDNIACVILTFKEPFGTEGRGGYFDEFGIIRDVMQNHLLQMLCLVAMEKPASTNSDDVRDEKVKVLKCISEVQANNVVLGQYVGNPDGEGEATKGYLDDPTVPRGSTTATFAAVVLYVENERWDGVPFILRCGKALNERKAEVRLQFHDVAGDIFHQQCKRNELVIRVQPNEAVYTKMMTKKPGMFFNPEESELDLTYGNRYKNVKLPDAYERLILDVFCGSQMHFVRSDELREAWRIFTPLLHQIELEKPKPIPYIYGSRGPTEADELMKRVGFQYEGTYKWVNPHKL

[11] = cytotoxicity in HPDE-C7 cells, cell-based, fluorescence, HTS (AID 430); format: functional; conditions: Homo sapiens
Cytochrome P450 3A4 = Cytochrome P450 3A4 (Homo sapiens, UniProt P08684); conditions: Potency;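 note: confirmatory qHTS run detecting inhibitors and substrates of CYP3A4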
Sequence of Cytochrome P450 3A4 (P08684 whole entry): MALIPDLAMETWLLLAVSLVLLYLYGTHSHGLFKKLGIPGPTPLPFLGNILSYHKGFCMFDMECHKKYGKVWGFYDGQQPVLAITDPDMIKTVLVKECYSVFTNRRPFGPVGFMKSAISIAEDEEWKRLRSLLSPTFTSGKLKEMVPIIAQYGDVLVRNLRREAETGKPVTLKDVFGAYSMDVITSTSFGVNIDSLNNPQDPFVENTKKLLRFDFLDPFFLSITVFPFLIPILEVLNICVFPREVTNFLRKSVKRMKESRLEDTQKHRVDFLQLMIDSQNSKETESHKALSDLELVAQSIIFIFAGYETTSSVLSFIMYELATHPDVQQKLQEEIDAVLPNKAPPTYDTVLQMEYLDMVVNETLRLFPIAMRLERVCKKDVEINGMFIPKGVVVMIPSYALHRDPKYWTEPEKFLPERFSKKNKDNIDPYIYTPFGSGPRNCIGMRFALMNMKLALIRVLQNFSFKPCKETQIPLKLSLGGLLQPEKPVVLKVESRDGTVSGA

Cytochrome P450 2C19 = Cytochrome P450 2C19 (Homo sapiens, UniProt P33261); assay: qHTS Assay for Inhibitors and Substrates of Cytochrome P450 2C19. [Related pubchem assays: 410 ]; format: ADME; conditions: read-out: Potency
Ephrin type-A receptor 4 = Ephrin type-A receptor 4 (Mus musculus, UniProt Q03137); assay: inhibitors of EphA4 binding to KYL peptide, primary screen, biochemical, colorimetric, mouse EphA4 (AID 689); format: functional
[12] = biological target: Glyceraldehyde-3-phosphate dehydrogenase (Homo sapiens, UniProt P04406)
Bcl-2-related protein A1 [13] = biological target: T4, Bcl-2-related protein A1 (Mus musculus, UniProt Q07440); assay: Bfl-1 binding inhibitors, SAR follow-up, biochemical, fluorescence polarization (AID 1070)
T4 sequence (Q07440 whole entry): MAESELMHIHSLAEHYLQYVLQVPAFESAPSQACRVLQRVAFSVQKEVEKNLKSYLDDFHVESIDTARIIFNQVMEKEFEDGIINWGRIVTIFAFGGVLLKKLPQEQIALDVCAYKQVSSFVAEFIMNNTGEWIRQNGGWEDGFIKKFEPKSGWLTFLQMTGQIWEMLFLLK

Bcl-2-related protein A1 [14] = biological target: T4, Bcl-2-related protein A1; assay: Bfl-1 inhibitors blocking BH3 peptide binding, confirmation, biochemical, TR-FRET, mouse Bfl-1 (AID 621);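 note: TR-FRET binding of GST-Bfl-1 to FITC-labelled Bid peptide via terbium antibody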
[15] = biological target: Arf-GAP with SH3 domain, ANK repeat and PH domain-containing protein 1 (Homo sapiens, UniProt Q9ULH1); format: functional;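 note: biochemical fluorescence polarization dose–response screen measuring inhibition of ASAP1; ASAP1 GAP domain stimulating GTP hydrolysis by truncated human ARF1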
Sequence of Arf-GAP with SH3 domain, ANK repeat and PH domain-containing protein 1 (Q9ULH1 whole entry, the tested form may be a part): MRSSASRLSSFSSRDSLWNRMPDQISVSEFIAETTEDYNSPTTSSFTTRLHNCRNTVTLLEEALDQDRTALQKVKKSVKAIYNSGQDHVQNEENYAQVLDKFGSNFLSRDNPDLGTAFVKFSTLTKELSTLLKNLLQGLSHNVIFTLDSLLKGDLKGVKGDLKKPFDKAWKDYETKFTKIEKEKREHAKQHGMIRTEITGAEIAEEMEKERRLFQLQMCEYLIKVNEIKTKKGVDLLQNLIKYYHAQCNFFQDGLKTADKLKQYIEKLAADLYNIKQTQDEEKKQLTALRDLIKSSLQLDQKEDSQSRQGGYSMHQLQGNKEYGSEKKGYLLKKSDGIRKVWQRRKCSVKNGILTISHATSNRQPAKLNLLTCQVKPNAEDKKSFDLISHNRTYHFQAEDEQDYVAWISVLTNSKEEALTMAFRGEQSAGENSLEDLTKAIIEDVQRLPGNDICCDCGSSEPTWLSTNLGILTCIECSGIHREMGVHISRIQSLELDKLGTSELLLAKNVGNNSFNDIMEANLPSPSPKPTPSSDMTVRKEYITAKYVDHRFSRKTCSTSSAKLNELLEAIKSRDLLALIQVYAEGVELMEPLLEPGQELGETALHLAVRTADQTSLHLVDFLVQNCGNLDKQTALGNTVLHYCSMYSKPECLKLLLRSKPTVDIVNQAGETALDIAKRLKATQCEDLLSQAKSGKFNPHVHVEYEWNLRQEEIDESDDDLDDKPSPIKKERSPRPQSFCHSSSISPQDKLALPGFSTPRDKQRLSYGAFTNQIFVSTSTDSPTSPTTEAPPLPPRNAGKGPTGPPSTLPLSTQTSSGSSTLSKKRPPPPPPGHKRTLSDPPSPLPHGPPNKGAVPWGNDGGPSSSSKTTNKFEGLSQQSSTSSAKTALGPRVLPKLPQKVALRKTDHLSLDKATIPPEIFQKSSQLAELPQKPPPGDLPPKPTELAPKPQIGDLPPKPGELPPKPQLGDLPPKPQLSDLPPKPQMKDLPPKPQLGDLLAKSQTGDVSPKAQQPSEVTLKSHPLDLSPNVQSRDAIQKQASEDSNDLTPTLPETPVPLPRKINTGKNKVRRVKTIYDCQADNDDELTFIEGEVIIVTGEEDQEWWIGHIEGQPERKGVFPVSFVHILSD

[16] = biological target: T5, RNA-binding protein pos-1 (Caenorhabditis elegans, UniProt G5EF15); assay: inhibitors of POS-1/mex-3 RNA binding, dose response, biochemical, fluorescence polarization (AID 1964);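 note: purified POS-1 fused to maltose binding protein made in E. coli; potency of compounds blocking POS-1 binding to fluorescent RNA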
T5 sequence (G5EF15 whole entry): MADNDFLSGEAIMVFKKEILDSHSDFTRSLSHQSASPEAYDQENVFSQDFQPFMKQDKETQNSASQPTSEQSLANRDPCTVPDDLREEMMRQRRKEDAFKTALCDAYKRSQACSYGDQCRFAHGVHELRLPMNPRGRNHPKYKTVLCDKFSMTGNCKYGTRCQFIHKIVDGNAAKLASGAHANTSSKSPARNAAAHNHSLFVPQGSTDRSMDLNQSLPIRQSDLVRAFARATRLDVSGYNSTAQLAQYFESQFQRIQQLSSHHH

[17] = biological target: T6, Zinc finger protein mex-5 (Caenorhabditis elegans, UniProt Q9XUB2); assay: MEX-5/TCR-2 RNA interaction inhibitors, dose response, biochemical, C. elegans, fluorescence polarization (AID 1960)
T6 sequence (Q9XUB2 whole entry): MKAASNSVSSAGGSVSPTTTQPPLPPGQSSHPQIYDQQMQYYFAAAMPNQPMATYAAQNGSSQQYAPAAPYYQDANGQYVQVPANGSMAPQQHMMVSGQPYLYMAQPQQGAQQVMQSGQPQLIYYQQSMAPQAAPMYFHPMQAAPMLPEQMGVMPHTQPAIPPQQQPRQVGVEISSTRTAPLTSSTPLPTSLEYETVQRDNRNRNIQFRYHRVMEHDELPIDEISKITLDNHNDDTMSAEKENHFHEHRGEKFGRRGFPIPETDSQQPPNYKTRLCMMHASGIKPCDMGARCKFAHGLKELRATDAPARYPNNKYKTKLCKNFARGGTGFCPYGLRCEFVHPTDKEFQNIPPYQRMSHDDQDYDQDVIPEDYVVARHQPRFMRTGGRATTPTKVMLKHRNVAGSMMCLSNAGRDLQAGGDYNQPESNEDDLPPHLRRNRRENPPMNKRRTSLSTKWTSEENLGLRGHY

[18] = biological target: T7, Carboxy-terminal domain RNA polymerase II polypeptide A small phosphatase 1 (Homo sapiens, UniProt Q9GZU7); assay: inhibitors of CTDSP1, concentration-response testing, biochemical assay, absorbance-based, actives from ultra-high-throughput screening (AID 540297); format: functional
T7 sequence (Q9GZU7 whole entry): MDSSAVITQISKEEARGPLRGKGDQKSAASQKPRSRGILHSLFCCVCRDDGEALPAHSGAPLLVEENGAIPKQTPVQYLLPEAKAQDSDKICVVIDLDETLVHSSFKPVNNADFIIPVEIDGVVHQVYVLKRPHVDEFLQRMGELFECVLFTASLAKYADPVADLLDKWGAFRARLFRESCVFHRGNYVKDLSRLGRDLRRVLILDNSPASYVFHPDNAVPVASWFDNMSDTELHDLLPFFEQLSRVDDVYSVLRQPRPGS

[19] = biological target: Protein-tyrosine kinase 2-beta (Homo sapiens, UniProt Q14289);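 note: potency of inhibitors of PYK2 kinase phosphorylation of poly-GT substrate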
Sequence of Protein-tyrosine kinase 2-beta (Q14289 whole entry): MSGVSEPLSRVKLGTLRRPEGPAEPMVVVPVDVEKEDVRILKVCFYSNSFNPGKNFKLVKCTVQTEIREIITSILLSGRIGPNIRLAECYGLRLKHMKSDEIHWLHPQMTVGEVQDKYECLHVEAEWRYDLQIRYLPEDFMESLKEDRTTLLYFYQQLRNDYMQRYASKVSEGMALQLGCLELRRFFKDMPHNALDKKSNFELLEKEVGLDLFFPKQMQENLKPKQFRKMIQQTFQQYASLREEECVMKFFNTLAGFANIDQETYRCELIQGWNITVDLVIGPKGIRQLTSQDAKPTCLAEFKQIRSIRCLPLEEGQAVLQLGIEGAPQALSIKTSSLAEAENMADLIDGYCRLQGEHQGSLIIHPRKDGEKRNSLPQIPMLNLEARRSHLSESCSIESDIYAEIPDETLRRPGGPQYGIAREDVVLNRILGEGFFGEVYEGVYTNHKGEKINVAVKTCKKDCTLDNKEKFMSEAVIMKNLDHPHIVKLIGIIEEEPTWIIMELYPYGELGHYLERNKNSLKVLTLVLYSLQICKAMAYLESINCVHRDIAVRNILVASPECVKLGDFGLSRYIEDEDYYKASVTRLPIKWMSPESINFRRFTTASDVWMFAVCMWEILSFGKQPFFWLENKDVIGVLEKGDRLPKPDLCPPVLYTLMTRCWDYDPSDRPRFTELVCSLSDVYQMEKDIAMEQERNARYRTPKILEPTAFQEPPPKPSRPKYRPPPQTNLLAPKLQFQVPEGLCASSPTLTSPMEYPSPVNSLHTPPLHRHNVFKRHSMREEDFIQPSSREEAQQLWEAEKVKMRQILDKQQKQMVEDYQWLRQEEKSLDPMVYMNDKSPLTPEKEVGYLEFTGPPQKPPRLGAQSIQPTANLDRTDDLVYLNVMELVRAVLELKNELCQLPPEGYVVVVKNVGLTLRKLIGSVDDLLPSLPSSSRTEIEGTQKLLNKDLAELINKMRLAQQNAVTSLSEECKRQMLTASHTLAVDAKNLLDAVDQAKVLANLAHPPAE

Streptococcus = assay: Group A Streptococcus viability loss, dose response, counter-screen for streptokinase expression inhibitor project, luminescence, BacTiterGlo (AID 1915); format: functional, organism-based;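 note: potency for reduction of bacterial viability or growth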
[20] = biological target: T3, Sphingosine 1-phosphate receptor 2; assay: Dose Response Cell Based Assay for Agonists of the S1P2 Receptor. [Related pubchem assays: 729, 736, 843 ]; format: functional
[21] = test system: Streptococcus sp. 'group A'; assay: growth inhibition of control SK(-) GAS strain, dose response, counter-screen for streptokinase expression inhibitor project, luminescence, kanamycin, BacTiterGlo, confirmation (AID 1900); format: functional, organism-based
Streptokinase A = biological target: T8, Streptokinase A (Streptococcus pyogenes serotype M1, UniProt P10520); assay: S. pyogenes streptokinase expression inhibitors, potency, dose response, plasminogen activation absorbance, OD405 (AID 1914); format: functional, Streptococcus pyogenes M1 GAS;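 note: secreted streptokinase activity via plasminogen activation per viability signal from cell pellet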
T8 sequence (P10520 whole entry): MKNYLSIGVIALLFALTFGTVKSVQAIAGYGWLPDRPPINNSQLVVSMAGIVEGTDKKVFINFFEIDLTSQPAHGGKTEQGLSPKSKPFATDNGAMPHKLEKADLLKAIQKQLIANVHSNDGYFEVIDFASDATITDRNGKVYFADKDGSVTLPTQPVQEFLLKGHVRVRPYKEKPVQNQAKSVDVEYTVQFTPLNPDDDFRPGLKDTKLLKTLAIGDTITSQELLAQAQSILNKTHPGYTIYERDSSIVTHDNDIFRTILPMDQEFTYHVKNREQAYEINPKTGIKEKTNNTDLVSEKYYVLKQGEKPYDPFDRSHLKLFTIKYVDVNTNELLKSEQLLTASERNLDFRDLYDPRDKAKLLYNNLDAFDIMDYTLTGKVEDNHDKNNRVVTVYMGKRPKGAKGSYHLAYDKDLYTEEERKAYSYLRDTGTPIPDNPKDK

[22] = Luminescence Cell-Based Dose Retest to Confirm Inhibitors of Cancer Stem Cells. [Related pubchem assays (depositor defined):AID2717, AID2721]; format: functional; conditions: Homo sapiens
[23] = Plasmodium falciparum Dd2 Sybr green parasite growth Measured in Cell-Based and Microorganism Combination System Using Plate Reader - 2153-01_Inhibitor_Dose_DryPowder_Activity_Set3.; format: functional
[24] = P. falciparum ATP4 D1247Y mutant growth inhibitors, dose response, NITD609-resistant line, SYBR Green, dry powder (AID 1159571); format: functional, cell-based;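 note: parasites synchronized at ring stage by sorbitol before testing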
[25] = P. falciparum 3D7-ScDHODH growth inhibitors, dose response, SYBR Green, dry powder samples (AID 1159570); format: functional, cell-based;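 note: parasite growth measured after 72 hours of compound exposure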
[26] = P. falciparum Dd2 growth inhibitors, dose response, SYBR Green, dry powder samples (AID 1159566); format: functional, cell-based;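 note: potency for growth inhibition with lower SYBR green DNA signal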
[27] = P. falciparum Dd2 growth inhibitors, dose response, SYBR Green, cherry-picked samples (AID 1159567); format: functional, cell-based
[28] = HepG2 cell cytotoxicity, dose response, cytotoxicity control, plate reader, dry powder samples (AID 1159569); format: functional, cell-based;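 note: inhibitor potency with signal falling toward the positive control level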

COc1ccc(NC(=O)c2ccc(C)cc2)c(OC)c1
EC50 [1]: 3.78 µM (active)

C=CC#CC[N+]1(CC#Cc2ccccc2)CCOCC1
IC50 (Phospholipase A2): 11.8 µM (active)
IC50 [2]: 124 µM (active)
IC50 (Cysteine protease ATG4B): 5.56 µM (active)

CN(C(=O)COC(=O)/C=C/c1ccc(Cl)c(Cl)c1)c1c(N)n(Cc2ccccc2)c(=O)[nH]c1=O
IC50 [3]: > 100 µM (active)

COc1ccc(C(=O)CNc2ccc3ccccc3c2)cc1
IC50 [4]: > 50 µM (not active)

N#Cc1c(NC(=O)CCN2C(=O)c3ccccc3C2=O)oc(-c2ccccc2)c1-c1ccccc1
IC50 [5]: > 50 µM (not active)

CC(=O)Nc1cc(OC(C)=O)c2nonc2c1OC(C)=O
IC50 [6]: 6.21 µM (active)
IC50 (Genome polyprotein): 38 µM (active)
CC50 (Vero): 12.6 µM (active)
EC50 [7]: 6.32 µM (active)
IC50 [8]: 46.6 µM (not active)
AC50 [9]: 4.89 µM (active)
IC50 [10]: > 80 µM (inactive)
EC50 [11]: 5.65 µM (active)

C=C/C1=C/Cc2ccccc2C(C[N+](=O)[O-])C(C(=O)OC)(C(=O)OC)C1 (stereo not drawn)
AC50 (Cytochrome P450 3A4): 3.16 µM (inconclusive)
AC50 (Cytochrome P450 2C19): 7.94 µM (inconclusive)

COc1ccc(C(=O)CN2CCOCC2)cc1F
IC50 (Ephrin type-A receptor 4): > 100 µM (not active)

COC(=O)c1cc(C)nc(S(C)(=O)=O)n1
IC50 [12]: > 100 µM (not active)
IC50 (Bcl-2-related protein A1 [13]): > 100 µM (not active)
IC50 (Bcl-2-related protein A1 [14]): > 100 µM (not active)

O=C(N/N=C/C=C/c1ccc([N+](=O)[O-])cc1)c1cccs1
IC50 [15]: 20.7 µM (inactive)
EC50 [16]: > 300 µM (not active)
EC50 [17]: 53.6 µM (active)
IC50 [18]: 4.28 µM (active)
IC50 [19]: 6.61 µM (active)

Clc1ccc(-c2ccc(/C=N/Nc3cc(N4CCOCC4)nc(N4CCOCC4)n3)o2)cc1
EC50 (Streptococcus): 17.1 µM (active)
CC50 (Vero): 34.6 µM (active)
EC50 [20]: 10.8 µM (not active)
EC50 [21]: 19.4 µM (active)
EC50 (Streptokinase A): > 150 µM (not active)
AC50 [22]: 1.73 µM (active)

COc1ccc(CN2C[C@@H](C)[C@H](OC)CN(C)C(=O)c3ccc(NC(=O)c4nc5ccccc5s4)cc3OC[C@H]2C)cc1
AC50 [23]: 1.06 µM (active)
AC50 [24]: 1.25 µM (active)
AC50 [25]: 3.16 µM (active)
AC50 [26]: 0.643 µM (active)
AC50 [27]: 0.854 µM (active)
AC50 [28]: > 92 µM (inactive)

Source: ChEMBL document CHEMBL1201862, “PubChem BioAssay data set” (2004)
